Source: patent US20250304990A1, “HERBICIDE RESISTANCE” (SYNGENTA CROP PROTECTION AG, priority 2021, published 2025)

Legend:
Assay in all cases: Dose response test, growth in 96-well plates
Type in all cases: cell-based, Chlorella fusca
[1] = system: Cf WT; conditions: Cf WT; 2-fold dilutions from 100 ppm
Description: (§1) Dose response tests with B5U were set-up in 96-well, flat bottomed plates. 200 μl medium was used in each well. 2 μl of 6 day old culture was added to each well, then 2 μl of DMSO or dilution of test compound were added to respective wells. 2-fold dilutions starting at 100 ppm were used per well. Plates were incubated at 25° C., 50 μmol/m^2/s, 16 hour photoperiod.
(§2) This was assessed by a visual inspection of growth in the 96-well plate. The inhibitor concentration at which no growth is observed is then defined as the LD.
(§3) Starting dose was 100 ppm and decreasing with 2-fold dilutions with C. fusca wt, the five HST mutants and the 10 compounds to which the wt is sensitive. Plates were incubated at 25° C., 50 μmol/m2/s, 16 hour photoperiod.

[2] = system: Cf-496-28; conditions: Cf-496-28 (V276A); 2-fold dilutions from 100 ppm
Description: as §1, §2, §3

[3] = system: Cf-496-19; conditions: Cf-496-19 (F275I); 2-fold dilutions from 100 ppm
Description: as §1, §2, §3

[4] = system: Cf-496-8; conditions: Cf-496-8 (M278L_F279I); 2-fold dilutions from 100 ppm
Description: as §1, §2, §3

[5] = system: Cf-496-15; conditions: Cf-496-15 (T277N); 2-fold dilutions from 100 ppm
Description: as §1, §2, §3

[6] = system: Cf-496-94; conditions: Cf-496-94 (F275L); 2-fold dilutions from 100 ppm
Description: as §1, §2, §3

Row | Compound | dose response to HST inhibiting compounds [1] [ppm] | dose response to HST inhibiting compounds [2] [ppm] | dose response to HST inhibiting compounds [3] [ppm] | dose response to HST inhibiting compounds [4] [ppm] | dose response to HST inhibiting compounds [5] [ppm] | dose response to HST inhibiting compounds [6] [ppm]
1 | Cc1nn(C)c(=O)c(-c2c(F)ccc(Cl)c2CCc2ccccc2C(F)(F)F)c1O [B5m, 4-[3-chloro-6-fluoro-2-[2-[2-(trifluoromethyl)phenyl]ethyl]phenyl]-5-hydroxy-2,6-dimethyl-pyridazin-3-one] | 12.5 | >100 | >100 | >100 | >100 | >100
2 | Cc1nn(C)c(=O)c(-c2c(F)ccc(Cl)c2CCc2ccc(F)cc2)c1OC(=O)C(C)C [B5p, [5-[3-chloro-6-fluoro-2-[2-(4-fluorophenyl)ethyl]phenyl]-1,3-dimethyl-6-oxo-pyridazin-4-yl]2-methylpropanoate] | 25 | >100 | >100 | >100 | >100 | >100
